Assay results from BindingDB's records for doi:10.1021/acs.jmedchem.5b01153 (University of Illinois At Chicago, 2016).

The compounds below were run against 5-hydroxytryptamine receptor 2B (Homo sapiens, UniProt P41595) (assay: Agonist activity at recombinant human 5HT2B receptor expressed in Flp-In-293 cells assessed as calcium flux by FLIPR assay).
Sequence of 5-hydroxytryptamine receptor 2B (P41595 whole entry): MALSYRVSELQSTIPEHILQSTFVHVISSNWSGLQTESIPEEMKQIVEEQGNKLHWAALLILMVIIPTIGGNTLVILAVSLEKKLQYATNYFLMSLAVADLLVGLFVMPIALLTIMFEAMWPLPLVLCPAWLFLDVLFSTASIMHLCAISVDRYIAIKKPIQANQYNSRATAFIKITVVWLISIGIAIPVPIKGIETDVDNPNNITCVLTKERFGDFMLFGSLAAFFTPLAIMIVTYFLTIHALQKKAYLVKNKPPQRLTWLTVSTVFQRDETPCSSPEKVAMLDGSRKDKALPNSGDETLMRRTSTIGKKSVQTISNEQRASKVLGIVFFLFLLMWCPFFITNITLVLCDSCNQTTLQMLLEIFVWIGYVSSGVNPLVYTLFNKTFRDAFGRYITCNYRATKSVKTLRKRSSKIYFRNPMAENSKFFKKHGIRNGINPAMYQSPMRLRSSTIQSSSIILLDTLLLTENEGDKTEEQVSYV
In the case of C=CCOc1cc(F)c(Cl)cc1C1CC1CN (stereo unspecified), the EC50 is reported as 1950 nM.

What follows are compounds tested against T1, 5-hydroxytryptamine receptor 2C (Homo sapiens, UniProt P28335) (assay: Agonist activity at recombinant human 5HT2C-INI receptor expressed in Flp-In-293 cells assessed as calcium flux by FLIPR assay).
T1 sequence (P28335 whole entry): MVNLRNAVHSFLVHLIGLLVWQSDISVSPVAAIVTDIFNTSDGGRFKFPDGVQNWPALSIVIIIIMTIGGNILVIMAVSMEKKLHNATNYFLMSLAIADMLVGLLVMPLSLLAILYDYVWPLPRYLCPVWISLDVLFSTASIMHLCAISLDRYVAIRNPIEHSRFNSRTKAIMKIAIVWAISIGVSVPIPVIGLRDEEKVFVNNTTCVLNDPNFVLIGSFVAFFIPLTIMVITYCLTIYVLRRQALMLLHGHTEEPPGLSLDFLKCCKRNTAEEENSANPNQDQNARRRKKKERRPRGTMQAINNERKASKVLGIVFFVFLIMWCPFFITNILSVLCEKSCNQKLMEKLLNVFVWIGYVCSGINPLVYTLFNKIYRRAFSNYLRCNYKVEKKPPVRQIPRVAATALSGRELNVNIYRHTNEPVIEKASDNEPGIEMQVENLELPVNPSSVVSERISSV
COc1ccc(Cl)c(Cl)c1C1CC1CN (stereo unspecified) gave an EC50 of 1.1 nM. NCC1CC1c1cc(Cl)c(F)cc1OCCF (stereo unspecified) was tested, and the EC50 was 776 nM. N[C@@H](Cc1c[nH]c2ccc(O)cc12)C(=O)O [OXITRIPTAN] showed an EC50 of 0.219 nM. Work on C=CCOc1cc(F)c(Cl)cc1C1CC1CN (stereo unspecified) yielded an EC50 of 308 nM. C=CCOc1ccc(F)c(F)c1C1CC1CN (stereo unspecified) showed an EC50 of 151 nM. For NCC1CC1c1c(OCCF)ccc(Cl)c1Cl (stereo unspecified), the EC50 was 234 nM. COc1ccc(F)c(F)c1C1CC1CN (stereo unspecified) showed an EC50 of 15 nM. With NCC1CC1c1c(OCCF)ccc(F)c1F (stereo unspecified) the EC50 was 509 nM. COc1cc(Cl)c(Cl)cc1C1CC1CN (stereo unspecified) showed an EC50 of 13 nM. NCC1CC1c1c(OCCF)ccc(Cl)c1F (stereo unspecified) gave an EC50 of 386 nM.
